Test results as given in patent US20050240041A1, “Palm-based hydroxy fatty acid” (priority 2004, published 2005).
Entries after “also recorded” stand apart in the source; their conditions may differ.

Key:
[1] = cited from earlier work
[2] = in-vitro dermal (skin) irritection test
Procedure: (§1) The purified palm DHSA obtained in the laboratory was subjected to in-vitro and in-vivo dermal irritection test which confirmed that the compound is non irritant, and thus suitable as one of the ingredients used in cosmetic products. The details of the current invention is described below.
In the recrystallization technique, the crude DHSA is dissolved in the solvent with a slight heating of the mixture (about 50° C. to 60° C.). The solution is left to cool down gradually to ambient temperature and further cooled at about 10° C. to 15° C. to ensure maximum yield. The precipitate obtained is filtered and dried. The product referred to, as purified palm DHSA is a white powdery solid with waxy sensation. The non-irritancy properly was conducted through in vitro derived skin irritection study.

[3] = in-vivo dermal irritection test
Description: as §1

CCCCCCCCC(O)C(O)CCCCCCCC(=O)O (stereo not drawn) [9,10-dihydroxystearic acid]
solubility in ether ([1]; ether): slightly soluble | solubility in hot alcohol or acetone ([1]; hot alcohol or acetone): soluble | solubility in water ([1]; water): insoluble

CCCCCCCCC(O)C(O)CCCCCCCC(=O)O (stereo not drawn) [purified palm DHSA, 9,10-dihydroxystearic acid]
dermal irritancy ([2]; in vitro dermal/skin irritection study): non irritant; also recorded: non-irritant | dermal irritancy [3]: non irritant

CCCCCCCCC(O)C(O)CCCCCCCC(=O)O (stereo not drawn) [purified DHSA, 9,10-dihydroxystearic acid]
irritancy ([2]; test not named at this place): non-irritant
